According to ChEMBL document CHEMBL1201862, “PubChem BioAssay data set” (2004):
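48-hour exposure; five concentrations; linearly interpolated endpoints. Abbreviation: GI50, concentration required for 50% inhibition of growth.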 Calls of active or inactive are those of the source. Rule as the data show it: active = GI50 up to about 1.1 µM and inactive = higher.

Assays:
Test in all cases: NCI tumour cell line growth inhibition, 48 h
UACC-62 = test system: UACC-62
U-251 = test system: U-251
786-0 = test system: 786-0
HCT-116 = test system: HCT-116
OVCAR-3 = test system: OVCAR-3
NCI/ADR-RES = test system: NCI/ADR-RES
HCT-15 = test system: HCT-15
HOP-62 = test system: HOP-62
NCI-H23 = test system: NCI-H23
OVCAR-8 = test system: OVCAR-8
NCI-H226 = test system: NCI-H226
SN12C = test system: SN12C
HL-60 = test system: HL-60
K562 = test system: K562
SK-MEL-2 = test system: SK-MEL-2
DU-145 = test system: DU-145
Hs-578T = test system: Hs-578T
MDA-MB-435 = test system: MDA-MB-435
UO-31 = test system: UO-31
NCI-H522 = test system: NCI-H522
SK-MEL-28 = test system: SK-MEL-28
SW-620 = test system: SW-620
LOX IMVI = test system: LOX IMVI
SR = test system: SR
SF-295 = test system: SF-295
RPMI-8226 = test system: RPMI-8226
MOLT-4 = test system: MOLT-4
SK-MEL-5 = test system: SK-MEL-5
HCC 2998 = test system: HCC 2998
HT-29 = test system: HT-29
M14 = test system: M14
OVCAR-5 = test system: OVCAR-5
ACHN = test system: ACHN
SNB-19 = test system: SNB-19
CCRF-CEM = test system: CCRF-CEM
T47D = test system: T47D
MCF7 = test system: MCF7
KM12 = test system: KM12
A498 = test system: A498
CAKI-1 = test system: CAKI-1
TK-10 = test system: TK-10
HOP-92 = test system: HOP-92
IGROV-1 = test system: IGROV-1
NCI-H460 = test system: NCI-H460
COLO 205 = test system: COLO 205
OVCAR-4 = test system: OVCAR-4
MDA-N = test system: MDA-N
BT-549 = test system: BT-549
SF-539 = test system: SF-539
SK-OV-3 = test system: SK-OV-3
MDA-MB-231 = test system: MDA-MB-231
SNB-75 = test system: SNB-75
A549 = test system: A549
EKVX = test system: EKVX
PC-3 = test system: PC-3
Malme-3M = test system: Malme-3M
UACC-257 = test system: UACC-257
RXF 393 = test system: RXF 393
SF-268 = test system: SF-268

Measured: GI50

CCOC(=O)n1c2ccccc2c2c(O)c(OC)c3c(c21)C(=O)NC3=O
17.3 µM: HCT-15
inactive: UACC-62 37.7 µM | U-251 32 µM | 786-0 19.5 µM | HCT-116 20.1 µM | OVCAR-3 22.2 µM | NCI/ADR-RES 28.6 µM | HOP-62 23 µM | NCI-H23 52.5 µM | OVCAR-8 31.8 µM | NCI-H226 7.59 µM | SN12C 83.6 µM | HL-60 20.7 µM | K562 40.9 µM | SK-MEL-2 > 100 µM | DU-145 30 µM | Hs-578T 59.4 µM | MDA-MB-435 60 µM | UO-31 33.1 µM | NCI-H522 22.6 µM | SK-MEL-28 > 100 µM | SW-620 35.5 µM | LOX IMVI 15.2 µM | SR 20.5 µM | SF-295 75.3 µM | RPMI-8226 58.5 µM | MOLT-4 19.5 µM | SK-MEL-5 37.1 µM | HCC 2998 12.2 µM | HT-29 24 µM | M14 25.8 µM | OVCAR-5 50.9 µM | ACHN 19.8 µM | SNB-19 84.5 µM | CCRF-CEM 13.1 µM | T47D 95.1 µM | MCF7 54.3 µM | KM12 50.8 µM | A498 78.7 µM | CAKI-1 20.7 µM | TK-10 52.1 µM | HOP-92 76 µM | IGROV-1 14.7 µM | NCI-H460 13.9 µM | COLO 205 21.4 µM | OVCAR-4 44.6 µM | MDA-N > 100 µM | BT-549 > 100 µM | SF-539 57.5 µM | SK-OV-3 34.6 µM | MDA-MB-231 20.6 µM | SNB-75 37.8 µM | A549 38.5 µM | EKVX > 100 µM | PC-3 45.8 µM | Malme-3M 35.9 µM | UACC-257 45.8 µM

Nc1nc(N)c(Cn2ccnc2)c(O)n1
active: K562 0.049 µM
inactive: UACC-62 > 100 µM | U-251 > 100 µM | 786-0 > 100 µM | HCT-116 > 100 µM | OVCAR-3 > 100 µM | NCI/ADR-RES > 100 µM | HOP-62 > 100 µM | NCI-H23 > 100 µM | OVCAR-8 > 100 µM | NCI-H226 > 100 µM | SN12C 5.15 µM | SK-MEL-2 > 100 µM | DU-145 > 100 µM | Hs-578T > 100 µM | MDA-MB-435 > 100 µM | UO-31 > 100 µM | NCI-H522 > 100 µM | LOX IMVI > 100 µM | SR > 100 µM | SF-295 > 100 µM | RPMI-8226 > 100 µM | RXF 393 > 100 µM | SK-MEL-5 > 100 µM | HT-29 > 100 µM | M14 > 100 µM | OVCAR-5 > 100 µM | ACHN > 100 µM | SNB-19 > 100 µM | T47D > 100 µM | MCF7 > 100 µM | KM12 > 100 µM | A498 > 100 µM | CAKI-1 > 100 µM | TK-10 > 100 µM | HOP-92 > 100 µM | IGROV-1 > 100 µM | NCI-H460 > 100 µM | COLO 205 > 100 µM | OVCAR-4 > 100 µM | MDA-N > 100 µM | BT-549 > 100 µM | SF-539 > 100 µM | SK-OV-3 > 100 µM | MDA-MB-231 > 100 µM | SNB-75 > 100 µM | A549 > 100 µM | SF-268 > 100 µM | EKVX > 100 µM | PC-3 > 100 µM | Malme-3M > 100 µM | UACC-257 > 100 µM
> 100 µM: HCT-15

N/C(=N\N=C\c1cc2ccccc2s1)c1cnccn1
> 100 µM: HCT-15
inactive: UACC-62 > 100 µM | U-251 > 100 µM | 786-0 > 100 µM | HCT-116 > 100 µM | OVCAR-3 > 100 µM | NCI/ADR-RES > 100 µM | HOP-62 > 100 µM | NCI-H23 > 100 µM | OVCAR-8 78.2 µM | NCI-H226 > 100 µM | SN12C > 100 µM | HL-60 > 100 µM | K562 3.85 µM | SK-MEL-2 > 100 µM | DU-145 > 100 µM | Hs-578T > 100 µM | MDA-MB-435 > 100 µM | UO-31 > 100 µM | NCI-H522 > 100 µM | SK-MEL-28 > 100 µM | SW-620 > 100 µM | LOX IMVI > 100 µM | SR 6 µM | SF-295 84.5 µM | RPMI-8226 > 100 µM | RXF 393 > 100 µM | SK-MEL-5 > 100 µM | HT-29 > 100 µM | M14 > 100 µM | OVCAR-5 > 100 µM | ACHN > 100 µM | SNB-19 88.3 µM | CCRF-CEM 53.3 µM | T47D 8.93 µM | MCF7 5.24 µM | KM12 > 100 µM | A498 > 100 µM | CAKI-1 > 100 µM | TK-10 87.7 µM | HOP-92 > 100 µM | IGROV-1 > 100 µM | NCI-H460 > 100 µM | COLO 205 > 100 µM | OVCAR-4 > 100 µM | MDA-N > 100 µM | BT-549 > 100 µM | SF-539 > 100 µM | SK-OV-3 > 100 µM | MDA-MB-231 82.6 µM | SNB-75 29.3 µM | A549 > 100 µM | SF-268 > 100 µM | EKVX > 100 µM | PC-3 92.3 µM | UACC-257 > 100 µM

S=P(C1CCCCC1)(C1CCCCC1)C(c1cccnc1)N1CCCC1 (stereo not drawn)
35.7 µM: HCT-15
inactive: UACC-62 22.5 µM | U-251 20.2 µM | 786-0 17.6 µM | HCT-116 18.5 µM | OVCAR-3 92.5 µM | NCI/ADR-RES 19 µM | HOP-62 16.3 µM | NCI-H23 18.7 µM | OVCAR-8 23.8 µM | NCI-H226 19.4 µM | SN12C 18.2 µM | HL-60 18.1 µM | K562 21.2 µM | SK-MEL-2 20.9 µM | DU-145 16.1 µM | Hs-578T 35.4 µM | MDA-MB-435 18.4 µM | NCI-H522 20.6 µM | SK-MEL-28 > 100 µM | SW-620 36.2 µM | LOX IMVI 7.18 µM | SR 25.5 µM | SF-295 21.2 µM | RPMI-8226 15.5 µM | MOLT-4 24 µM | RXF 393 18.6 µM | SK-MEL-5 16.5 µM | HT-29 33.8 µM | M14 18.4 µM | OVCAR-5 36.1 µM | ACHN 20.3 µM | SNB-19 83.2 µM | CCRF-CEM 15.8 µM | T47D 31.9 µM | MCF7 > 100 µM | KM12 17.5 µM | A498 27.7 µM | CAKI-1 17.4 µM | TK-10 18.5 µM | HOP-92 23.5 µM | IGROV-1 17.9 µM | NCI-H460 20.2 µM | COLO 205 18.9 µM | OVCAR-4 21.5 µM | MDA-N 20.1 µM | BT-549 18.5 µM | SF-539 16.7 µM | SK-OV-3 81.8 µM | MDA-MB-231 18.6 µM | SNB-75 19.4 µM | A549 17.8 µM | SF-268 18.5 µM | EKVX 19.1 µM | PC-3 18.3 µM | Malme-3M 23.2 µM | UACC-257 > 100 µM

O=C(O)CN1CCNCCN(CC(=O)O)CCN(CC(=O)O)CCNCC1
inactive: UACC-62 84.7 µM | U-251 > 100 µM | 786-0 93.3 µM | HCT-116 35.2 µM | OVCAR-3 76 µM | NCI/ADR-RES 23.3 µM | HOP-62 > 100 µM | OVCAR-8 96.2 µM | NCI-H226 > 100 µM | SN12C > 100 µM | HL-60 25.9 µM | K562 85.3 µM | SK-MEL-2 > 100 µM | DU-145 > 100 µM | Hs-578T > 100 µM | MDA-MB-435 > 100 µM | UO-31 > 100 µM | NCI-H522 18.2 µM | SK-MEL-28 > 100 µM | SW-620 41.5 µM | LOX IMVI 91.2 µM | SR 61.1 µM | SF-295 > 100 µM | RPMI-8226 > 100 µM | MOLT-4 83.6 µM | SK-MEL-5 > 100 µM | HT-29 26.7 µM | M14 > 100 µM | OVCAR-5 97.7 µM | ACHN > 100 µM | SNB-19 > 100 µM | CCRF-CEM > 100 µM | T47D > 100 µM | MCF7 69.8 µM | KM12 > 100 µM | A498 71.9 µM | CAKI-1 > 100 µM | TK-10 > 100 µM | HOP-92 > 100 µM | IGROV-1 > 100 µM | NCI-H460 68.7 µM | COLO 205 64.1 µM | OVCAR-4 > 100 µM | MDA-N > 100 µM | BT-549 > 100 µM | SF-539 63.7 µM | SK-OV-3 > 100 µM | MDA-MB-231 > 100 µM | SNB-75 63.4 µM | A549 > 100 µM | EKVX > 100 µM | PC-3 > 100 µM | Malme-3M > 100 µM | UACC-257 > 100 µM
61.9 µM: HCT-15
